± gives the standard deviation of the averaged measurements.
How the values were obtained:
Test in all cases: LOEC (log10 uM (lowest observed effect concentration))
[1] = compound: OCC(F)(F)C(F)(F)C(F)(F)C(F)(F)C(F)(F)C(F)(F)C(F)(F)C(F)(F)CO [1H,1H,10H,10H-Perfluorodecane-1,10-diol]
Description: (§1)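 BioMAP Diversity Plus panel in human primary cell co-cultures, 4 concentrations in duplicate blinded samples. Responses are log10 fold change versus DMSO control, processed with tcpl v2.1.0. A hit is called when responses at any concentration exceed the cutoff (the larger of 3*bmad or log10(1.2)); the lowest observed effect concentration (modl_ga, log10 uM) is reported for hits.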

[2] = compound: O=C(CC(=O)C(F)(F)C(F)(F)C(F)(F)F)c1cccs1 [(Perfluorobutyryl)-2-thenoylmethane]
Description: as §1

[3] = compound: OCCC(F)(F)C(F)(F)C(F)(F)C(F)(F)C(F)(F)C(F)(F)C(F)(F)C(F)(F)F [8:2 Fluorotelomer alcohol]
Description: as §1

[4] = compound: C=CC(=O)OCC(F)(F)C(F)(F)C(F)(F)C(F)(F)COC(=O)C=C [1H,1H,6H,6H-Perfluorohexane-1,6-diol diacrylate]
Description: as §1

[5] = compound: OC(C(F)(F)F)(C(F)(F)F)C(O)(C(F)(F)F)C(F)(F)F [Perfluoropinacol]
Description: as §1

[6] = compound: OCCCC(F)(F)C(F)(F)C(F)(F)C(F)(F)C(F)(F)C(F)(F)C(F)(F)C(F)(F)F [3-(Perfluorooctyl)propanol]
Description: as §1

[7] = compound: FC(F)(I)C(F)(F)C(F)(F)C(F)(F)C(F)(F)C(F)(F)I [1,6-Diiodoperfluorohexane]
Description: as §1

Test System | LOEC (log10 uM) [1] | LOEC (log10 uM) [2] | LOEC (log10 uM) [3] | LOEC (log10 uM) [4] | LOEC (log10 uM) [5] | LOEC (log10 uM) [6] | LOEC (log10 uM) [7]
IMphg ESelectin down | 1.54 ± 0.34 | 1.07 ± 0.32 | 1.78 | 1.3 | 1.3 | 1.07 ± 0.32 | 1.3
BE3C ITAC down | 1.3 | 1.3 | 1.3 | 1.78 | 1.78 | 1.78 | 1.54 ± 0.34
hDFCGF MCP1 up | – | – | – | – | 1.3 | – | –
CASM3C MCSF down | – | 1.78 | 1.54 ± 0.34 | 1.07 ± 0.32 | 1.78 | 1.3 | 1.3
BE3C EGFR down | 1.78 | 1.31 ± 0.66 | – | 1.54 ± 0.34 | – | 1.78 | 1.78
3C Eselectin down | – | 1.78 | – | 1.3 | 1.54 ± 0.34 | 1.54 ± 0.34 | 1.54 ± 0.34
KF3CT SRB down | 1.78 | – | 1.3 | 1.78 | 1.78 | 1.3 | 1.07 ± 0.32
MyoF PAI1 down | – | – | 1.3 | 1.3 | 1.78 | 1.3 | 1.07 ± 0.32
KF3CT TIMP2 down | 1.78 | – | 1.3 | 1.07 ± 0.32 | 1.78 | 1.3 | 1.07 ± 0.32
3C uPAR down | – | 0.845 | 1.3 | 1.3 | 0.845 | 1.54 ± 0.34 | 1.78
4H VCAM1 down | 1.78 | 1.3 | 1.54 ± 0.34 | 1.3 | 1.3 | 1.54 ± 0.34 | 1.3
BE3C SRB down | – | 1.78 | 1.3 | – | 1.78 | 1.78 | 1.78
hDFCGF MMP1 down | 1.78 | 1.3 | 1.3 | 1.3 | – | 1.3 | 0.845
hDFCGF SRB up | – | 0.845 | – | – | – | – | –
SAg MCP1 down | – | 1.3 | 1.78 | 1.07 ± 0.32 | 1.54 ± 0.34 | 1.54 ± 0.34 | 1.78
SAg Eselectin down | – | 0.845 | 1.54 ± 0.34 | 0.845 | 1.3 | 1.78 | 1.78
CASM3C IL6 down | – | 1.78 | – | – | – | – | 1.54 ± 0.34
4H SRB down | – | 1.3 | 1.3 | 1.3 | 1.3 | 1.3 | 1.54 ± 0.34
LPS VCAM1 down | – | 1.78 | 1.07 ± 0.32 | 1.3 | 1.54 ± 0.34 | 1.07 ± 0.32 | 1.54 ± 0.34
LPS IL8 down | – | – | 1.54 ± 0.34 | 1.3 | – | 0.845 | 1.54 ± 0.34
BF4T MMP1 down | – | 1.54 ± 0.34 | – | – | – | 1.78 | 1.78
MyoF IL8 down | – | – | 1.3 | 1.3 | – | 1.3 | 1.3
IMphg MCSF down | 1.78 | – | 1.78 | 1.54 ± 0.34 | 1.54 ± 0.34 | 1.78 | 1.78
KF3CT MIG down | 1.78 | – | 1.54 ± 0.34 | 1.3 | 1.78 | 1.3 | 1.07 ± 0.32
hDFCGF TIMP1 down | 1.78 | – | 1.3 | 0.845 | – | 1.07 ± 0.32 | 1.07 ± 0.32

Test System | LOEC (log10 uM) [1] | LOEC (log10 uM) [2] | LOEC (log10 uM) [3] | LOEC (log10 uM) [4] | LOEC (log10 uM) [5] | LOEC (log10 uM) [6] | LOEC (log10 uM) [7]
CASM3C Thrombomodulin up | – | – | – | – | – | – | 1.3
LPS TissueFactor down | – | – | 1.78 | 1.3 | 1.78 | 1.31 ± 0.66 | 1.78
CASM3C MIG down | – | 1.54 ± 0.34 | 1.78 | 0.845 | 1.78 | 1.3 | 1.3
KF3CT ICAM1 up | – | – | – | – | 1.78 | – | –
BE3C ICAM1 down | 1.78 | 1.3 | 1.54 ± 0.34 | 1.54 ± 0.34 | – | 1.78 | 1.78
BF4T SRB down | 1.78 | 1.78 | 1.54 ± 0.34 | – | – | 1.3 | 1.3
CASM3C MCP1 down | – | 1.78 | 1.78 | 1.78 | – | 1.54 ± 0.34 | 1.3
BF4T MMP9 down | 1.78 | 1.3 | 1.3 | 1.54 ± 0.34 | – | 1.3 | 1.07 ± 0.32
BF4T PAI1 down | 1.3 | 1.3 | 1.78 | – | 1.3 | 1.3 | 1.07 ± 0.32
CASM3C IL8 down | – | – | – | – | – | 1.78 | 1.54 ± 0.34
KF3CT IP10 down | – | – | 1.3 | 1.3 | 1.78 | 1.3 | 1.3
BE3C Keratin818 down | – | 1.3 | 1.54 ± 0.34 | – | – | 1.78 | 1.78
BE3C IL1a down | – | 1.3 | 1.3 | 1.07 ± 0.32 | 1.3 | 1.78 | 1.78
hDFCGF ICAM1 down | 1.78 | – | 1.3 | 0.845 | – | 1.07 ± 0.32 | 0.845
LPS TissueFactor up | – | 1.3 | – | – | – | – | –
BF4T IL8 down | – | – | – | – | – | 1.78 | 1.3
CASM3C SRB down | – | 1.78 | 1.78 | 1.78 | 1.78 | 1.54 ± 0.34 | 1.3
KF3CT ICAM1 down | 1.78 | – | 1.3 | 1.3 | – | 1.3 | 1.07 ± 0.32
LPS CD40 down | – | 1.54 ± 0.34 | 1.3 | 0.845 | 1.3 | 1.3 | 1.78
BF4T CD90 down | – | – | – | – | – | 1.54 ± 0.34 | –
MyoF MMP1 down | – | – | – | – | – | 1.3 | –
CASM3C HLADR down | – | 1.78 | 1.3 | 1.54 ± 0.34 | 1.07 ± 0.32 | 1.78 | 1.3
IMphg SRB down | 1.78 | 1.3 | 1.78 | – | 1.3 | 1.54 ± 0.34 | 1.3
hDFCGF EGFR down | 1.78 | – | 1.54 ± 0.34 | – | 1.54 ± 0.34 | 0.845 | –
4H MCP1 down | – | 1.3 | – | 1.78 | 1.54 ± 0.34 | 1.78 | 1.54 ± 0.34

From the supplement of paper PMC10331698
